Data set [1] can be described thus: Hepatocyte intrinsic clearance and metabolite profile. The data set is classed as in vitro ADME, human. To be noted: human. On the procedure:
Fexinidazole was incubated with cryopreserved hepatocytes from male CD-1 mice, male Sprague Dawley rats, male beagle dogs, male cynomolgus monkeys, and from pooled white or African-American human donor samples (purchased commercially), at concentrations of 1 µM and 10 µM. […] The incubated samples were analyzed by LC-MS after extraction into acetonitrile.
Fexinidazole sulfoxide, lot 1106-I-0170, 99.3% purity, and fexinidazole sulfone, lot 1106-I-0171, 99.9% purity, were provided by the Sponsor.
Cryopreserved hepatocytes of five single donors, lots EHI, REL, KSE […]
ZIJ and MRS, were purchased from In Vitro Technologies Inc (Baltimore, Maryland, USA).
The certificates of analysis are reported in Appendix 1.
Reagents and solvents were of analytical grade and obtained from Sigma-Aldrich (St. Louis, […]
7.5. In Vitro Incubations
On the day of the experiment a 10 mM stock solution of fexinidazole in DMSO was prepared and, within 3 hours, aliquots of this freshly prepared solution, after suitable dilution, were added to the incubation matrix, to reach fexinidazole final concentrations of 1 and 10 µM. The final percentage of DMSO was 0.01% in the incubation samples for the […]
The cryopreserved hepatocytes were thawed according to the supplier’s procedure and the number of viable cells was determined using the Trypan Blue exclusion method. Viabilities were 92% for lot EHI, 89% for lot REL, 82% for lot KSE, 86% for lot ZIJ and 86% for lot MRS in the intrinsic clearance study. In the metabolite profile study viabilities were 91% for lot EHI, 90% for lot REL, 85% for lot KSE, 84% for lot ZIJ and 87% for lot MRS.
Afterwards, the same amount of viable cells for each donor were pooled and used for the incubations of fexinidazole.
7.5.1. Intrinsic Clearance Study […]
µM with pooled human hepatocytes (1 million cells/mL) in a final incubation volume of 1 mL Leibovitz L-15 medium, at 37°C. Incubations were performed in duplicate in a 48-well plate under shaking. Sampling was performed using an automatic liquid handling system (Multiprobe II EX, Packard). At 0, 1, 5, 10, 15, 20, 30, 60 and 120 minutes, 50 µL aliquots of the incubates were taken, then 80 µL of ice-cold acetonitrile and 20 µL of 1 µM warfarin in acetonitrile (internal standard) were added, and samples centrifuged at 2000 rpm for 20 min. The supernatant was analyzed by LC-MS/MS. […]
The chemical stability of fexinidazole was checked by incubating the compound at 37°C in the medium alone at t = 0 and 120 minutes.
For the determination of phase I and phase II activities of hepatocytes, 7-ethoxycoumarin (7-ETC) 1 µM, and 7-hydroxycoumarin (7-HC) 30 µM were used as positive controls and incubated under the same conditions as fexinidazole. Aliquots of incubates were taken at 0, 1, 5, 10, 15, 20, 30, 60 and 120 minutes and processed as fexinidazole samples.
7.5.2. Metabolite Profile Study
For metabolite profiling, fexinidazole was incubated at a concentration of 10 µM with pooled human hepatocytes (1 million cells/mL) in a final incubation volume of 2 mL Leibovitz L-15 medium, at 37°C. Aliquots of the incubation samples were taken at t = 0, 30 and 120 minutes; the metabolism was stopped by the addition of an equal volume of cold acetonitrile and the samples centrifuged at 1100 rpm for 20 min. The supernatant was stored at -20°C until analysis. Control incubations were performed with the compound in the medium alone for 120 minutes.
7.6. Analysis of the Samples of Intrinsic Clearance Study
The analysis of the samples for intrinsic clearance determination was performed by an LC-MS/MS method, using the following conditions:
HPLC Equipment and Conditions
HPLC system 1100 binary pump (Agilent, Palo Alto, USA)
Autosampler 2777 (Waters)
Analytical column Guard Column SB-C8 4.6 x 12.5 mm, 5 µm (Zorbax)
Column temperature ambient
Mobile phase A 10 mM ammonium formate pH 4.0: acetonitrile (95:5, v:v)
Mobile phase B 10 mM ammonium formate pH 4.0: acetonitrile (5:95, v:v) […]
Gradient conditions Step Total time (min) flow (µL/min) %A % B […]

Another data set is described as follows: in vitro. To be noted: human. On the procedure: Caco-2 [36] or MDR1-MDCK (Madin Darby canine kidney cells transfected with the human multidrug resistance MDR1 gene) cell monolayers were grown to confluence on collagen-coated, microporous, polycarbonate membranes in 12-well microtitre plates. The buffer for the donor chamber was Hanks balanced salt solution with 10 mM HEPES and 15 mM glucose at pH 7.4. The buffer in the receiver chamber contained the same with the addition of 1% bovine serum albumin (BSA). The test article was added at 5 µM in the assay buffer. […] After 2 h, duplicate aliquots were taken from the donor and receiver chambers and assayed via LC/MS. The apparent permeability and recovery were calculated using standard methods.
The objective of this study was to determine the bi-directional Caco-2 permeability and efflux limited absorption poten tial of thr ee test compoun ds. […]
4 . […] Th e test compound dosing concentrations were 5 µM in th e a ssay bu f fer . […] After two hours, a l iquot s wer e t a ken fr om th e r ecei ver an d don or cha m ber s. E a ch det erm ina ti on wa s per for m ed in dupl i cat e. Th e Lucifer Yellow flux was also measur ed for each mon olayer after bein g subjected to th e test compoun ds to en sur e n o damage was in flicted to th e cell mon olayer s durin g th e flux per iod. All samples wer e assayed by LC/MS/MS usin g electrospray ionization. Analytical conditions are outlined in Attachment I. The apparent permeability, Papp, and per cen t r ecover y wer e calculated as follows:
Papp = (dCr /dt) x Vr/(AxC) (1)
P er cen t Rec o ver y = 1 0 0 x ( ( V r x C rfi n a l ) + (Vd x Cd fi n a l ))/(Vd x C N) (2) […]
dCr /dt is th e slope of th e cumulative con cen tration in th e r eceiver compartment ver sus time in µM s -1. […]

One may read the half-life as the time needed for the level to fall by half in the phase considered. Broadly, the Papp A→B is the apparent permeability from the apical to the basolateral side of a cell layer. Low values mean slow passage, high ones fast passage. As usually defined, the Papp B→A is how fast a substance crosses the layer from the basolateral side. The efflux ratio is a quotient of directional permeabilities that is used to spot active efflux. On to `CSc1ccc(OCc2ncc([N+](=O)[O-])n2C)cc1` [Fexinidazole, 1-methyl-2-((p-(methylthio)phenoxy)methyl)-5-nitroimidazole], for which the half-life at 1 µM in data set [1] came to 6.5 min. Also, in data set [1] (read-out: CLint in vitro), the CLint scaled at 1 µM worked out at 257 mL/min/kg and the hepatocyte CLint at 1 µM turned out to be 107 µL/min/1e6 cells. Besides, in the data set “in vitro” (Caco-2, pH 7.4), the Papp A→B at 2 h, 5 µM turned out to be 57.2 ×10⁻⁶ cm/s; the Papp B→A at 2 h, 5 µM came out at 50.9 ×10⁻⁶ cm/s; the efflux ratio at 2 h, 5 µM was found to be 0.9. The recovery at 2 h, 5 µM in the data set “in vitro” (Caco-2, pH 7.4, Percent Recovery A→B) stood at 72%. In the data set “in vitro” (Caco-2, pH 7.4, Percent Recovery B→A), this molecule yielded a recovery at 2 h, 5 µM of 81%.

The values above are taken from PMC3006138, “Fexinidazole – A New Oral Nitroimidazole Drug Candidate Entering Clinical Development for the Treatment of Sleeping Sickness” (PLoS Neglected Tropical Diseases, 2010).
